What was measured:
human PCSK9 [1] = experiment: Cell Free PCSK9 Assay (PCSK9-luciferase RNA translated in HeLa cell lysate); type: biochemical; details: 30° C. for 45 minutes, luciferase readout, top concentration 100 μM
Method: In order to eliminate the permeability barrier inherent to the WT7 and SCHH cell-based assays a cell-free system was also established to access compound activity. […] The construct was then in-vitro transcribed using the MEGAscript T7 Kit (Life Technologies) and RNA subsequently purified incorporating the MEGAclear Kit (Life Technologies) according to manufacturer's protocols. […] Growth was in a 50 L wavebag at a rocker speed of 25 rpm and angle 6.1 with 5% CO2 and 0.2 LPM flow rate with cells harvested at a density of 2-2.5e6/ml. Lysates additionally contained 1 tablet of Roche cOmplete-EDTA protease inhibitors per 50 ml with tris(2-carboxyethyl)phosphine (Biovectra) substituted for dithiothreitol, and were clarified by an additional final centrifugation at 10,000 rpm in a Sorvall SS34 rotor at 4° C. for 10 minutes. Compound screening was performed in 384-well plates in an eleven point, 0.5 log dilution format at a top test compound concentration of 100 μM in a final volume of 0.5% DMSO. […] Upon assay completion 1 μL from each reaction solution was removed and transferred to a second 384-well Optiplate (Perkin Elmer) containing 24 μL of SteadyGlo (Promega) and signal intensity was measured on the Envision (Perkin Elmer) using the enhanced luminescence protocol. […] The test compound data were converted into percent effect, using the ZPE and HPE controls as 0% and 100% activity, respectively, applying Equation 1 above. IC50 was then calculated and reported as the midpoint in the percent effect curve in molar units and the values are reported under the Cell Free PCSK9 IC50 (μM) column header within Table 1 Biological Data.

human PCSK9 [2] = experiment: PCSK9 AlphaLISA assay, PCSK9 lowering in WT7 cells; details: WT7 cells (Huh7 stably over-expressing human PCSK9); secreted PCSK9 by AlphaLISA; overnight incubation (16-24 h); top concentration 20 μM; read-out: Cell Based PCSK9 IC50
Excerpt: An in-vitro AlphaLISA assay (Perkin Elmer) was developed in order to quantitate the level of PCSK9 secreted into the cell culture media following compound treatment. To detect and measure PCSK9 protein an in-house generated anti-PCSK9 antibody was coupled to AlphaLISA acceptor beads by an external vendor (PerkinElmer) and a second internally developed anti-PCSK9 antibody with an epiptope distinct from that of the acceptor beads was biotinylated in house. Streptavidin coated-donor beads (Perkin Elmer) are also included in the assay mixture which then binds the biotinylated anti-PCSK9 antibody and in the presence of PCSK9 this donor complex and acceptor beads are brought into close proximity. […] The ability of compound to modulate PCSK9 protein levels in conditioned media by AlphaLISA was assessed in the human hepatocellular carcinoma cell line Huh7, stably over-expressing human PCSK9. […] Following plasmid transfection the stable WT7 clone was identified and maintained under Zeocin selection. Compound screening was performed in 384-well plates where WT7 cells were plated at a density of 7500 cells per well in 20 μL of tissue culture media containing compound in an eleven point, 0.5 log dilution format at a high treatment concentration of 20 μM in a final volume of 0.5% DMSO. In additional to these test compound conditions each screening plate also included wells that contained 20 μM puromycin as a positive assay control defined as high percent effect, HPE, as well as wells containing media in 0.5% DMSO as a negative treatment control defined as zero percent effect, ZPE. After overnight compound incubation (16-24 h) the tissue culture media was collected and an aliquot from each sample was transferred to individual wells of a 384-well white Optiplate (Perkin Elmer). The coupled antibodies and donor beads were added to the assay plates in a buffer composed of 30 mM Tris pH 7.4, 0.02% Tween-20 and 0.02% Casein. Anti-PCSK9 acceptor beads (final concentration of 10 μg/mL) and anti-PCSK9 biotinylated antibody (final concentration of 3 nM) were added and incubated for 30 minutes at room temperature followed by the addition of the streptavidin donor beads (final concentration 40 μg/mL) for an additional 60 minutes. Additionally a standard curve was generated where AlphaLISA reagents were incubated in wells spiked with recombinant human PCSK9 diluted in tissue culture media from 5000 ng/mL to 0.6 ng/mL. […] The test compound data were converted into percent effect, using the ZPE and HPE controls as 0% and 100% activity, respectively. The equation used for converting each well reading into percent effect was:
[formula] IC50 was then calculated and reported as the midpoint in the percent effect curve in molar units and the values are reported under the Cell Based PCSK9 IC50 (μM) column header within Table 1 Biological Data. Additionally, to monitor the selectivity of compound response for PCSK9 the level of a second secreted protein, Transferrin, was measured from the same conditioned media treated with test compound by AlphaLISA. […] To detect and quantify effects on Transferrin 0.01 mL of the culture media was transferred to a 384-well white Optiplate and 0.01 mL of media was added to bring the volume to 0.02 ml. Anti-Transferrin acceptor beads were added to a final concentration of 10 μg/mL, biotinylated anti-Transferrin at 3 nM and streptavidin donor beads at 40 μg/mL. Percent effect and IC50 for Transferrin was computed in a similar manner as that described for PCSK9.

PCSK9 = PCSK9 lowering in sandwich culture human hepatocytes (SCHH); type: cell-based; details: maximum response versus vehicle
Method: Test compound in-vitro pharmacokinetic and pharmacodynamic relationships were measured in sandwich culture primary cryopreserved human hepatocytes. Within these studies SCHH cells (BD Biosciences IVT) were thawed at 37° C. then placed on ice, after which the cells were added to pre-warmed (37° C.) In VitroGRO-HT media and centrifuged at 50×g for 3 min. The cell pellet was re-suspended to 0.8×10^6 cells/mL in InVitroGRO-CP plating medium and cell viability determined by trypan blue exclusion. On day 1, hepatocyte suspensions were plated in BioCoat 96-well plates at a density of 80000 cells/well in a volume of 0.1 mL/well. After 18 to 24 hours of incubation at 37° C. in 5% CO2, cells were overlaid with ice-cold 0.25 mg/mL BD Matrigel Matrix Phenol Red-Free in incubation medium at 0.1 mL/well. Cultures were maintained at 37° C. in 5% CO2 in InVitroGRO-HI (FBS-free media), which was replaced every 24 hours and time course treatments were initiated on day 5. Prior to compound treatment cell plates were washed 3 times with 0.1 mL/well InVitroGRO-HI and 0.09 mL of media was added back in preparation for the compound additions. 1 uL of either DMSO or compound DMSO stocks at 30 mM, 10 mM, 3 mM and 1 mM were stamped into 96 well V bottom polypropylene plates. 0.099 mL of media was added to the compound plate and mixed thoroughly before the addition of 0.010 mL from the interim compound plate to the cell plate. […] At the indicated time, 0.08 mL of media was removed from the cell plates and frozen for subsequent analysis of secreted PCSK9 by AlphaLISA and for determination of drug levels in the media by liquid chromatography-tandem mass spectrometry (LC-MS/MS). The remaining media was then aspirated and the cell layers were washed 3× with ice cold Hanks Balanced Salt Solution (HBSS) under shaking conditions to remove the matrigel overlay and plates were then stored at −20° C. for subsequent determination of drug levels in the cells by LC-MS/MS. AlphaLISA determination of PCSK9 protein levels within the conditioned media was performed ultilizing the identical reagents and detection protocols described above for the WT7 cells.

Structure (SMILES)	IC50 (human PCSK9 [1])	IC50 (human PCSK9 [2])	Sandwich Culture Hepatocyte (SCHH) PCSK9 Lowering (PCSK9; at 6 h at 30 uM)	Sandwich Culture Hepatocyte (SCHH) PCSK9 Lowering (PCSK9; at 8 h at 30 μM)
CCOC(=O)OC(CC)n1nnc(-c2c(-c3ccc(C(=O)N(c4ncccc4C)[C@@H]4CCCNC4)cc3)cnn2C)n1 (single isomer, unassigned) [Example 32]	7.26 µM	> 20 µM	0% at 6 h at 30 uM	–
CCOC(=O)OC(CC)n1nnc(-c2c(-c3ccc(C(=O)N(c4ncccc4C)[C@@H]4CCCNC4)cc3)cnn2C)n1 (single isomer, unassigned) [Example 33]	23.7 µM	> 20 µM	32% at 6 h at 30 uM	–
CCOC(=O)OC(C(C)C)n1nnc(-c2c(-c3ccc(C(=O)N(c4ncccc4C)[C@@H]4CCCNC4)cc3)cnn2C)n1 (single isomer, unassigned) [Example 34]	5.22 µM	> 20 µM	20% at 6 h at 30 uM	–
CCOC(=O)OC(C(C)C)n1nnc(-c2c(-c3ccc(C(=O)N(c4ncccc4C)[C@@H]4CCCNC4)cc3)cnn2C)n1 (single isomer, unassigned) [Example 35]	6.2 µM	> 20 µM	28% at 6 h at 30 uM	–
CCOC(=O)OC(n1nnc(-c2c(-c3ccc(C(=O)N(c4ncccc4C)[C@@H]4CCCNC4)cc3)cnn2C)n1)C(C)(C)C (single isomer, unassigned) [Example 36]	5.43 µM	> 20 µM	27% at 6 h at 30 uM	–
CCOC(=O)OC(n1nnc(-c2c(-c3ccc(C(=O)N(c4ncccc4C)[C@@H]4CCCNC4)cc3)cnn2C)n1)C(C)(C)C (single isomer, unassigned) [Example 37]	22.9 µM	> 20 µM	25% at 6 h at 30 uM	–
Cc1cccnc1N(C(=O)c1ccc(-c2cnn(C)c2-c2nnn(C(C)OC(=O)OC(C)C)n2)cc1)[C@@H]1CCCNC1 (single isomer, unassigned) [Example 38]	2.19 µM	–	3% at 6 h at 30 uM	–
Cc1cccnc1N(C(=O)c1ccc(-c2cnn(C)c2-c2nnn(C(C)OC(=O)OC(C)C)n2)cc1)[C@@H]1CCCNC1 (single isomer, unassigned) [Example 39]	0.592 µM	–	0% at 6 h at 30 uM	–
CCC(OC(=O)OC(C)C)n1nnc(-c2c(-c3ccc(C(=O)N(c4ncccc4C)[C@@H]4CCCNC4)cc3)cnn2C)n1 (single isomer, unassigned) [Example 40]	18.2 µM	> 20 µM	26% at 6 h at 30 uM	–
CCC(OC(=O)OC(C)C)n1nnc(-c2c(-c3ccc(C(=O)N(c4ncccc4C)[C@@H]4CCCNC4)cc3)cnn2C)n1 (single isomer, unassigned) [Example 41]	15.4 µM	> 19.4 µM	35% at 6 h at 30 uM	–
Cc1cccnc1N(C(=O)c1ccc(-c2cnn(C)c2-c2nnn(C(OC(=O)OC(C)C)C(C)C)n2)cc1)[C@@H]1CCCNC1 (single isomer, unassigned) [Example 42]	7.38 µM	> 20 µM	19% at 6 h at 30 uM	–
Cc1cccnc1N(C(=O)c1ccc(-c2cnn(C)c2-c2nnn(C(OC(=O)OC(C)C)C(C)C)n2)cc1)[C@@H]1CCCNC1 (single isomer, unassigned) [Example 43]	31.9 µM	> 20 µM	21% at 6 h at 30 uM	–
CCC(=O)OC(C)n1nnc(-c2c(-c3ccc(C(=O)N(c4ncccc4C)[C@@H]4CCCNC4)cc3)cnn2C)n1 (single isomer, unassigned) [Example 44]	4.39 µM	> 20 µM	12% at 6 h at 30 uM	–
CCC(=O)OC(C)n1nnc(-c2c(-c3ccc(C(=O)N(c4ncccc4C)[C@@H]4CCCNC4)cc3)cnn2C)n1 (single isomer, unassigned) [Example 45]	25.1 µM	> 20 µM	8% at 6 h at 30 uM	–
CCOC(=O)c1c(-c2ccc(C(=O)N(c3ncccc3Cl)[C@@H]3CCCNC3)cc2)cnn1C [Example 6, ethyl 4-(4-{(3-chloropyridin-2-yl)[(3R)-piperidin-3-yl]carbamoyl}phenyl)-1-methyl-1H-pyrazole-5-carboxylate]	1.7 µM	–	–	80% at 8 h at 30 μM
CCOC(=O)O[C@H](C)n1nnc(-c2c(-c3ccc(C(=O)N(c4ncccc4C)[C@@H]4CCCNC4)cc3)cnn2C)n1 [Example 31, ethyl (1R)-1-{5-[1-methyl-4-(4-{(3-methylpyridin-2-yl)[(3R)-piperidin-3-yl]carbamoyl}phenyl)-1H-pyrazol-5-yl]-2H-tetrazol-2-yl}ethyl carbonate]	–	> 20 µM	–	19% at 8 h at 30 uM
